Assay results: the NIST ThermoML archive (doi:10.1021/je500332k)
± gives the expanded uncertainty stated by the source.

How the values were obtained:
[1] = 298.2 K; 101.33 kPa; Liquid; Vibrating tube method
[2] = Boiling temperature at pressure P; settings: 101.33 kPa; Liquid; Distillation
[3] = refractive index (Na D-line) (dimensionless); settings: 298.2 K; 101.33 kPa; Liquid; Standard Abbe refractometry

| SMILES | mass density [1] | Boiling temperature at pressure P [2] | refractive index [3] |
| --- | --- | --- | --- |
| CC(=O)O [acetic acid] | 1049.42 ± 0.26 kg/m3 | 118.1 ± 0.3 °C | 1.3713 ± 0.0003 |
| COC(=O)OC [dimethyl carbonate] | 1061.9 ± 0.38 kg/m3 | 90.08 ± 0.29 °C | 1.3685 ± 0.0004 |
| O [water] | – | 100.1 ± 0.3 °C | 1.3324 ± 0.0003 |
